Data set [1] deals with 3T3-L1. The experiment in a line: Reduction of […] protein level in mouse 3T3L1 cells at 10 uM after 24 to 48 hrs by immunoblotting. It counts as functional, cell-based.
Data set [2] can be described thus: Cytotoxicity against mouse 3T3L1 cells at 1 to 10 uM after 48 hrs by MTT assay. The conditions noted are these: 3t3-l1, 48 h. Format: cell-based.
A short description of data set [3]: Reduction of perilipin mRNA expression in mouse 3T3L1 cells after 24 hrs by RT-PCR analysis. It counts as functional, cell-based. As to conditions: 3T3-L1.
The test system of data set [4] is 3T3-L1. The experiment in a line: Induction of PKA-mediated HSL phosphorylation at S563 in mouse 3T3L1 cells at 10 uM after 24 to 48 hrs by immunoblotting. Format: cell-based.
A short description of data set [5]: Reduction of […] mRNA expression in mouse 3T3L1 cells at 1 to 10 uM after 24 hrs by […]. Format: functional, cell-based. The conditions noted are these: 3T3-L1.
Data set [6] relates to 3T3-L1. The experiment in a line: Inhibition of mouse 3T3L1 cell differentiation assessed as reduction in PPARgamma protein level after 8 days by immunoblotting. It counts as functional, cell-based.
The subject of data set [7] is 3T3-L1. The data set is described as follows: Stimulation of lipolysis in mouse 3T3L1 cells after 48 hrs by glycerol release assay. Format: functional, cell-based.
The subject of data set [8] is 3T3-L1. The data set is described as follows: Induction of AMPK-mediated HSL phosphorylation at S565 in mouse 3T3L1 cells at 10 uM after 24 to 48 hrs by immunoblotting. Format: cell-based.
Data set [9] concerns 3T3-L1. The experiment in a line: Reduction of lipid content in mature mouse 3T3L1 cells after 7 days by Oil Red O staining method. It counts as functional, cell-based.
Data set [10] in a line: Reduction of HSL mRNA expression in mouse 3T3L1 cells at 1 to 10 uM after 24 hrs by RT-PCR analysis. It counts as functional, cell-based. The conditions noted are these: 3T3-L1.
The test system of data set [11] is 3T3-L1. The data set is described as follows: Inhibition of mouse 3T3L1 cell differentiation assessed as reduction in PPARgamma gene expression after 2 days by RT-PCR analysis. It counts as functional, cell-based.
Data set [12] concerns 3T3-L1. The data set is described as follows: Inhibition of mouse 3T3L1 cell differentiation assessed as reduction in intracellular lipid accumulation after 8 days by Oil Red O staining method. Format: functional, cell-based.
The subject of data set [13] is 3T3-L1. The data set is described as follows: Inhibition of mouse 3T3L1 cell differentiation assessed as reduction in EBPalpha protein level after 8 days by immunoblotting. Format: functional, cell-based.
Data set [14] deals with 3T3-L1. The experiment in a line: Inhibition of mouse 3T3L1 cell differentiation assessed as reduction in EBPalpha gene expression after 2 days by RT-PCR analysis. It counts as functional, cell-based.
For data set [15], the system named is 3T3-L1. The experiment in a line: Reduction of HSL protein level in mouse 3T3L1 cells at 10 uM after 24 to 48 hrs by immunoblotting. It counts as functional, cell-based.
For data set [16], the system named is 3T3-L1. The data set is described as follows: Reduction of perilipin protein level in mouse 3T3L1 cells at 10 uM after 24 to 48 hrs by immunoblotting. Format: functional, cell-based.
Data set [17] is described as follows: Reduction of […] mRNA expression in mouse 3T3L1 cells after 24 hrs by RT-PCR analysis. It counts as functional, cell-based. As to conditions: 3T3-L1.
The subject of data set [18] is 3T3-L1. The data set is described as follows: Stimulation of lipolysis in mouse 3T3L1 cells after 48 hrs by glycerol release assay in presence of p38 MAPK inhibitor SB203580. Format: functional, cell-based.
The subject of data set [19] is 3T3-L1. The data set is described as follows: Stimulation of lipolysis in mouse 3T3L1 cells after 48 hrs by glycerol release assay in presence of PKA inhibitor H89. It counts as functional, cell-based.
The subject of data set [20] is 3T3-L1. The experiment in a line: Stimulation of lipolysis in mouse 3T3L1 cells at 10 uM after 48 hrs by glycerol release assay. Format: functional, cell-based.
Data set [21] concerns 3T3-L1. The experiment in a line: Stimulation of lipolysis in mouse 3T3L1 cells after 48 hrs by glycerol release assay in presence of ERK inhibitor PD98059. It counts as functional, cell-based.
The test system of data set [22] is 3T3-L1. The experiment in a line: Induction of PKA-mediated HSL phosphorylation at S660 in mouse 3T3L1 cells at 10 uM after 24 to 48 hrs by immunoblotting. Format: cell-based.
In data set [23] the test system is 3T3-L1. The experiment in a line: Stimulation of lipolysis in mouse 3T3L1 cells after 48 hrs by glycerol release assay in presence of JNK inhibitor SP600125. Format: functional, cell-based.
In data set [24] the test system is 3T3-L1. The data set is described as follows: Stimulation of lipolysis in mouse 3T3L1 cells at 0.25 mM after 48 hrs by glycerol release assay. It counts as functional, cell-based.

The source made the active and inactive calls. The rule behind the calls is not given here.

Consider `C=C1C(=O)C2=C(C[C@@](C)(CO)C2)[C@](C)(O)C12CC2`, for which the outcome (in the data set with 3T3-L1 [1]; in the data set on 3T3-L1 [4]; in [5]; in data set [10]; in the data set with 3T3-L1 [15]; with 3T3-L1 [16]) was Active. Moreover, the outcome in the data set with 3T3-L1 [18], in the data set on 3T3-L1 [20], in the data set with 3T3-L1 [22] and in the data set with 3T3-L1 [23] was Active. In addition, the Activity result was “Non-toxic” in data set [2]; “Dose-dependent effect” in data set [3]; “Dose-dependent effect” in the data set with 3T3-L1 [7]; “Dose-dependent effect” with 3T3-L1 [9]; “Dose-dependent effect” in data set [17]. Besides, the inhibition result in the data set with 3T3-L1 [6], in the data set with 3T3-L1 [12] and in the data set with 3T3-L1 [13] was “Dose-dependent effect” in each case. Also, the outcome in the data set with 3T3-L1 [8], in the data set with 3T3-L1 [19] and in the data set with 3T3-L1 [21] was inactive. In addition, the inhibition result in the data set with 3T3-L1 [11] and with 3T3-L1 [14] was “Active” each time.
As to `C=C1C(=O)C2=C(C[C@](C)(CO)C2)[C@](C)(O)C12CC2`, the outcome (with 3T3-L1 [1]; with 3T3-L1 [4]; in data set [5]; in data set [10]; with 3T3-L1 [15]; in the data set on 3T3-L1 [16]) was Active. Moreover, the outcome in the data set on 3T3-L1 [18], in the data set on 3T3-L1 [20], in the data set on 3T3-L1 [22] and with 3T3-L1 [23] was Active. The Activity entry in data set [2] is “Non-toxic”; in data set [3] it was “Dose-dependent effect”; in the data set on 3T3-L1 [7], “Dose-dependent effect”; with 3T3-L1 [9], “Dose-dependent effect”; in data set [17], “Dose-dependent effect”. Moreover, the inhibition result with 3T3-L1 [6], in the data set with 3T3-L1 [12] and in the data set on 3T3-L1 [13] was “Dose-dependent effect” in each case. The result with 3T3-L1 [8], in the data set on 3T3-L1 [19] and in the data set with 3T3-L1 [21] was inactive. The inhibition result with 3T3-L1 [11] and in the data set on 3T3-L1 [14] was “Active” throughout.
Take `CC(C)Cn1c(=O)n(C)c(=O)c2nc[nH]c21`: the outcome in the data set on 3T3-L1 [24] was Active.
Take `CC(C)NCC(O)c1ccc(O)c(O)c1` (stereo not drawn): the result in the data set on 3T3-L1 [20] was Active.

Values taken from ChEMBL document CHEMBL3232923, “Illudins C2 and C3 stimulate lipolysis in 3T3-L1 adipocytes and suppress adipogenesis in 3T3-L1 preadipocytes” (J Nat Prod, 2014).
